# Results taken from ChEMBL document CHEMBL3885881, “DrugMatrix”.
# Organism: Rattus norvegicus
# Assay: DrugMatrix - Regimen: Daily Repeat
# Assay type: toxicity, organism-based, Sprague-Dawley
# Parameters: regimen Daily Repeat, gender Male, age 6-8 weeks
# Conditions: in vivo, po, route oral GAVAGE, vehicle .5 % CMC; for ABSOLUTE BASOPHIL / ABSOLUTE EOSINOPHIL / ABSOLUTE LYMPHOCYTE / ABSOLUTE MONOCYTE / ABSOLUTE SEGMENTED NEUTROPHIL / BASOPHIL / EOSINOPHIL / ERYTHROCYTE COUNT / HEMATOCRIT / HEMOGLOBIN / LEUKOCYTE COUNT / LYMPHOCYTE / MEAN CORPUSCULAR HEMOGLOBIN / MEAN CORPUSCULAR HEMOGLOBIN CONCENTRATION / MEAN CORPUSCULAR VOLUME / MONOCYTE / NEUTROPHIL / NUCLEATED RED BLOOD CELLS / PLATELET COUNT: tissue Blood; for ALANINE AMINOTRANSFERASE / ALBUMIN / ALKALINE PHOSPHATASE / ASPARTATE AMINOTRANSFERASE / BLOOD UREA NITROGEN / CARBON DIOXIDE / CHLORIDE / CHOLESTEROL / CREATINE PHOSPHOKINASE / CREATININE / GLUCOSE / LACTATE DEHYDROGENASE / LIPASE / PHOSPHORUS / POTASSIUM / SODIUM / TOTAL BILIRUBIN / TOTAL PROTEIN / URIC ACID: tissue Plasma
# [1] = 100 mg/kg, 72 h, dose level Low, time 3 day
# [2] = 100 mg/kg, 120 h, dose level Low, time 5 day
# [3] = 2000 mg/kg, 72 h, dose level High, time 3 day
# [4] = 2000 mg/kg, 120 h, dose level High, time 5 day
smiles,measurement,setting,value
C#C[C@]1(O)CC[C@H]2[C@@H]3CCC4=Cc5oncc5C[C@]4(C)[C@H]3CC[C@@]21C [DANAZOL],ABSOLUTE BASOPHIL,[1],0 CELLS/uL
same,ABSOLUTE EOSINOPHIL,[1],39 CELLS/uL
same,ABSOLUTE LYMPHOCYTE,[1],10714 CELLS/uL
same,ABSOLUTE MONOCYTE,[1],124 CELLS/uL
same,ABSOLUTE SEGMENTED NEUTROPHIL,[1],1823 CELLS/uL
same,BASOPHIL,[1],0%
same,EOSINOPHIL,[1],0.33%
same,ERYTHROCYTE COUNT,[1],5.54 x10E6/uL
same,HEMATOCRIT,[1],34.17%
same,HEMOGLOBIN,[1],13.43 G/DL
same,LEUKOCYTE COUNT,[1],12.7 x10E3/uL
same,LYMPHOCYTE,[1],84.33%
same,MEAN CORPUSCULAR HEMOGLOBIN,[1],24.3 pg
same,MEAN CORPUSCULAR HEMOGLOBIN CONCENTRATION,[1],39.3 G/DL
same,MEAN CORPUSCULAR VOLUME,[1],61.77 fL
same,MONOCYTE,[1],1%
same,NEUTROPHIL,[1],14.33%
same,NUCLEATED RED BLOOD CELLS,[1],0 /100WBC
same,PLATELET COUNT,[1],1192.67 x10E3/uL
same,ALANINE AMINOTRANSFERASE,[1],44.33 u/L
same,ALBUMIN,[1],4.17 G/DL
same,ALKALINE PHOSPHATASE,[1],377 u/L
same,ASPARTATE AMINOTRANSFERASE,[1],76.33 u/L
same,BLOOD UREA NITROGEN,[1],14.67 mg/dL
same,CARBON DIOXIDE,[1],25.33 mmol/L
same,CHLORIDE,[1],102 MEQ/L
same,CHOLESTEROL,[1],55 mg/dL
same,CREATINE PHOSPHOKINASE,[1],401.33 u/L
same,CREATININE,[1],0.17 mg/dL
same,GLUCOSE,[1],163.33 mg/dL
same,LACTATE DEHYDROGENASE,[1],137 u/L
same,LIPASE,[1],10 u/L
same,PHOSPHORUS,[1],12.07 mg/dL
same,POTASSIUM,[1],6.65 MEQ/L
same,SODIUM,[1],143.7 MEQ/L
same,TOTAL BILIRUBIN,[1],0.2 mg/dL
same,TOTAL PROTEIN,[1],5.97 G/DL
same,URIC ACID,[1],1.73 mg/dL
same,ABSOLUTE BASOPHIL,[2],0 CELLS/uL
same,ABSOLUTE EOSINOPHIL,[2],63 CELLS/uL
same,ABSOLUTE LYMPHOCYTE,[2],13104.67 CELLS/uL
same,ABSOLUTE MONOCYTE,[2],130.33 CELLS/uL
same,ABSOLUTE SEGMENTED NEUTROPHIL,[2],1568.67 CELLS/uL
same,BASOPHIL,[2],0%
same,EOSINOPHIL,[2],0.33%
same,ERYTHROCYTE COUNT,[2],5.51 x10E6/uL
same,HEMATOCRIT,[2],33.67%
same,HEMOGLOBIN,[2],13.33 G/DL
same,LEUKOCYTE COUNT,[2],14.87 x10E3/uL
same,LYMPHOCYTE,[2],88%
same,MEAN CORPUSCULAR HEMOGLOBIN,[2],24.2 pg
same,MEAN CORPUSCULAR HEMOGLOBIN CONCENTRATION,[2],39.57 G/DL
same,MEAN CORPUSCULAR VOLUME,[2],61.07 fL
same,MONOCYTE,[2],1%
same,NEUTROPHIL,[2],10.67%
same,NUCLEATED RED BLOOD CELLS,[2],0 /100WBC
same,PLATELET COUNT,[2],1135.67 x10E3/uL
same,ALANINE AMINOTRANSFERASE,[2],59.67 u/L
same,ALBUMIN,[2],4.07 G/DL
same,ALKALINE PHOSPHATASE,[2],404 u/L
same,ASPARTATE AMINOTRANSFERASE,[2],88.67 u/L
same,BLOOD UREA NITROGEN,[2],15.67 mg/dL
same,CARBON DIOXIDE,[2],28 mmol/L
same,CHLORIDE,[2],99.67 MEQ/L
same,CHOLESTEROL,[2],47.67 mg/dL
same,CREATINE PHOSPHOKINASE,[2],326.33 u/L
same,CREATININE,[2],0.2 mg/dL
same,GLUCOSE,[2],144 mg/dL
same,LACTATE DEHYDROGENASE,[2],320.33 u/L
same,LIPASE,[2],9 u/L
same,PHOSPHORUS,[2],10.93 mg/dL
same,POTASSIUM,[2],6.55 MEQ/L
same,SODIUM,[2],142.4 MEQ/L
same,TOTAL BILIRUBIN,[2],0.23 mg/dL
same,TOTAL PROTEIN,[2],5.87 G/DL
same,URIC ACID,[2],1.63 mg/dL
same,ABSOLUTE BASOPHIL,[3],0 CELLS/uL
same,ABSOLUTE EOSINOPHIL,[3],36.33 CELLS/uL
same,ABSOLUTE LYMPHOCYTE,[3],8482.33 CELLS/uL
same,ABSOLUTE MONOCYTE,[3],63 CELLS/uL
same,ABSOLUTE SEGMENTED NEUTROPHIL,[3],1351.67 CELLS/uL
same,BASOPHIL,[3],0%
same,EOSINOPHIL,[3],0.33%
same,ERYTHROCYTE COUNT,[3],6.02 x10E6/uL
same,HEMATOCRIT,[3],35.6%
same,HEMOGLOBIN,[3],13.97 G/DL
same,LEUKOCYTE COUNT,[3],9.93 x10E3/uL
same,LYMPHOCYTE,[3],85.33%
same,MEAN CORPUSCULAR HEMOGLOBIN,[3],23.23 pg
same,MEAN CORPUSCULAR HEMOGLOBIN CONCENTRATION,[3],39.23 G/DL
same,MEAN CORPUSCULAR VOLUME,[3],59.17 fL
same,MONOCYTE,[3],0.67%
same,NEUTROPHIL,[3],13.67%
same,NUCLEATED RED BLOOD CELLS,[3],0 /100WBC
same,PLATELET COUNT,[3],1115.33 x10E3/uL
same,ALANINE AMINOTRANSFERASE,[3],54.67 u/L
same,ALBUMIN,[3],4.13 G/DL
same,ALKALINE PHOSPHATASE,[3],331 u/L
same,ASPARTATE AMINOTRANSFERASE,[3],125.67 u/L
same,BLOOD UREA NITROGEN,[3],18 mg/dL
same,CARBON DIOXIDE,[3],30 mmol/L
same,CHLORIDE,[3],99.67 MEQ/L
same,CHOLESTEROL,[3],51.67 mg/dL
same,CREATINE PHOSPHOKINASE,[3],222.33 u/L
same,CREATININE,[3],0.15 mg/dL
same,GLUCOSE,[3],144.67 mg/dL
same,LACTATE DEHYDROGENASE,[3],126.33 u/L
same,LIPASE,[3],10 u/L
same,PHOSPHORUS,[3],12 mg/dL
same,POTASSIUM,[3],6.6 MEQ/L
same,SODIUM,[3],143.8 MEQ/L
same,TOTAL BILIRUBIN,[3],0.17 mg/dL
same,TOTAL PROTEIN,[3],6.13 G/DL
same,URIC ACID,[3],1.7 mg/dL
same,ABSOLUTE BASOPHIL,[4],0 CELLS/uL
same,ABSOLUTE EOSINOPHIL,[4],32.33 CELLS/uL
same,ABSOLUTE LYMPHOCYTE,[4],11456 CELLS/uL
same,ABSOLUTE MONOCYTE,[4],0 CELLS/uL
same,ABSOLUTE SEGMENTED NEUTROPHIL,[4],1345 CELLS/uL
same,BASOPHIL,[4],0%
same,EOSINOPHIL,[4],0.33%
same,ERYTHROCYTE COUNT,[4],5.94 x10E6/uL
same,HEMATOCRIT,[4],35.4%
same,HEMOGLOBIN,[4],14 G/DL
same,LEUKOCYTE COUNT,[4],12.83 x10E3/uL
same,LYMPHOCYTE,[4],88.67%
same,MEAN CORPUSCULAR HEMOGLOBIN,[4],23.57 pg
same,MEAN CORPUSCULAR HEMOGLOBIN CONCENTRATION,[4],39.57 G/DL
same,MEAN CORPUSCULAR VOLUME,[4],59.5 fL
same,MONOCYTE,[4],0%
same,NEUTROPHIL,[4],11%
same,NUCLEATED RED BLOOD CELLS,[4],0 /100WBC
same,PLATELET COUNT,[4],1399.33 x10E3/uL
same,ALANINE AMINOTRANSFERASE,[4],62.67 u/L
same,ALBUMIN,[4],4.17 G/DL
same,ALKALINE PHOSPHATASE,[4],326.67 u/L
same,ASPARTATE AMINOTRANSFERASE,[4],68 u/L
same,BLOOD UREA NITROGEN,[4],18.67 mg/dL
same,CARBON DIOXIDE,[4],28.33 mmol/L
same,CHLORIDE,[4],99.33 MEQ/L
same,CHOLESTEROL,[4],45.33 mg/dL
same,CREATINE PHOSPHOKINASE,[4],147.33 u/L
same,CREATININE,[4],0.18 mg/dL
same,GLUCOSE,[4],140.67 mg/dL
same,LACTATE DEHYDROGENASE,[4],121 u/L
same,LIPASE,[4],10 u/L
same,PHOSPHORUS,[4],12.37 mg/dL
same,POTASSIUM,[4],6.84 MEQ/L
same,SODIUM,[4],145.03 MEQ/L
same,TOTAL BILIRUBIN,[4],0.2 mg/dL
same,TOTAL PROTEIN,[4],6.73 G/DL
same,URIC ACID,[4],1.6 mg/dL
